From patent US12097192B2 (Corcept Therapeutics Incorporated, priority 2019, dated 2024)

Experiments:
Assay type in all cases: in vivo, human
[1] = test system: Cushing's syndrome patients; assay: Cushing's syndrome patient study: hypertension response (24-hour ambulatory blood pressure)
Procedure: All patients gave informed consent before participating in any study-related procedures.
Response criteria for hyperglycemia were changes from baseline in glucose tolerance as measured by: ≥0.5% decrease in HbA1c, normalization or ≥50 mg/dL decrease in 2-hr OGTT glucose, or decrease in total daily insulin (≥25%) or sulfonylurea dose (≥50%). Response criteria for hypertension (HTN) was a ≥5 mm Hg decrease in mean systolic and/or diastolic blood pressure (SBP/DBP).
Response was based on ≥0.5% reduction of HbA1c associated with reduction or discontinuation of diabetes medications or clinically significant reduction (≥50 mg/dL decrease) or normalisation of the 2-hour glucose measurement from an oral glucose tolerance test (OGTT).

[2] = test system: Cushing's syndrome patients; assay: Cushing's syndrome patient study: ECG; settings: All Subjects
Source text: All patients gave informed consent before participating in any study-related procedures. […] The study protocol called for patient visits to the study site at screening, on Day 1 (baseline), Weeks 2, 4, 6, 8, 10, and 12, and after a 4-week follow-up period for Group 1. For Group 2, the protocol called for patient visits to the study site at screening, on Day 1 (baseline), Weeks 2, 4, 6, 8, 10, 12, 14, and 16, and after a 4-week follow-up period. Patient dosing will be done at home, except on days of study visits. […] The safety protocol also included assessments by physical examination findings, vital signs, ECG results, pregnancy tests, clinical laboratory test results (hematology and chemistry panels), adverse events (AEs), and concomitant medications. […] It ignores noncompliance, protocol deviations, withdrawal, and anything that happens after randomization. In contrast, per-protocol (PP) analysis refers to inclusion in the analysis of only those patients who strictly adhered to the protocol. The PP analysis provides an estimate of the true efficacy of an intervention, i.e., among those who completed the treatment as planned.

[3] = test system: Cushing's syndrome patients; assay: Cushing's syndrome patient study: depression (BDI-II), Cushing QOL, cognitive tests; settings: All Subjects
Source text: All patients gave informed consent before participating in any study-related procedures. […] The study protocol called for patient visits to the study site at screening, on Day 1 (baseline), Weeks 2, 4, 6, 8, 10, and 12, and after a 4-week follow-up period for Group 1. For Group 2, the protocol called for patient visits to the study site at screening, on Day 1 (baseline), Weeks 2, 4, 6, 8, 10, 12, 14, and 16, and after a 4-week follow-up period. Patient dosing will be done at home, except on days of study visits. […] It ignores noncompliance, protocol deviations, withdrawal, and anything that happens after randomization. In contrast, per-protocol (PP) analysis refers to inclusion in the analysis of only those patients who strictly adhered to the protocol. The PP analysis provides an estimate of the true efficacy of an intervention, i.e., among those who completed the treatment as planned.

[4] = Safety population, Group 1 (100-200 mg/day, 12 weeks)
[5] = Safety population, Group 2 (250-400 mg/day, 16 weeks)
[6] = mITT, Group 1 (100-200 mg/day, 12 weeks)
[7] = mITT, Group 2 (250-400 mg/day, 16 weeks)
[8] = mPP, Group 1 (100-200 mg/day, 12 weeks)
[9] = mPP, Group 2 (250-400 mg/day, 16 weeks)

Cn1cc(S(=O)(=O)N2CCC3=Cc4c(cnn4-c4ccc(F)cc4)C[C@]3(C(=O)c3cc(C(F)(F)F)ccn3)C2)cn1 [relacorilant, (R)-(1-(4-fluorophenyl)-6-((1-methyl-1H-pyrazol-4-yl)sulfonyl)-4,4a,5,6,7,8-hexahydro-1H-pyrazolo[3,4-g]isoquinolin-4a-yl) (4-(trifluoromethyl)pyridin-2-yl)methanone]
hypertension response rate (≥5 mmHg reduction) ([1]; HD group (doses up to 400 mg daily), week 16): 63.6% | hypertension response rate (≥5 mmHg reduction) ([1]; LD group (doses up to 200 mg daily), week 12): 41.7% | nocturnal and daytime blood pressures ([1]; hypertension responders): clinically significant improvement | ECG Median Heart Rate mean change from Baseline to Last Observed [2, 4]: 8 beats/min | PR Interval, Aggregate mean change from Baseline to Last Observed [2, 4]: 2.72 ms | QRS Duration, Aggregate mean change from Baseline to Last Observed [2, 4]: -0.79 ms | QT Interval, Aggregate mean change from Baseline to Last Observed [2, 4]: -15.85 ms | QTcB Interval, Aggregate mean change from Baseline to Last Observed [2, 4]: 5.58 ms | QTcF Interval, Aggregate mean change from Baseline to Last Observed [2, 4]: -1.98 ms | RR Interval, Aggregate mean change from Baseline to Last Observed [2, 4]: -93.14 ms | ECG Median Heart Rate mean change from Baseline to Last Observed [2, 5]: 5.23 beats/min | PR Interval, Aggregate mean change from Baseline to Last Observed [2, 5]: -4.2 ms | QRS Duration, Aggregate mean change from Baseline to Last Observed [2, 5]: -0.77 ms | QT Interval, Aggregate mean change from Baseline to Last Observed [2, 5]: -11.04 ms | QTcB Interval, Aggregate mean change from Baseline to Last Observed [2, 5]: 2.28 ms | QTcF Interval, Aggregate mean change from Baseline to Last Observed [2, 5]: -2.54 ms | RR Interval, Aggregate mean change from Baseline to Last Observed [2, 5]: -56.67 ms | ECG Median Heart Rate mean change from Baseline to Last Observed ([2]; Safety population, Overall): 6.7 beats/min | PR Interval, Aggregate mean change from Baseline to Last Observed ([2]; Safety population, Overall): -0.4 ms | QRS Duration, Aggregate mean change from Baseline to Last Observed ([2]; Safety population, Overall): -0.78 ms | QT Interval, Aggregate mean change from Baseline to Last Observed ([2]; Safety population, Overall): -13.6 ms | QTcB Interval, Aggregate mean change from Baseline to Last Observed ([2]; Safety population, Overall): 4.03 ms | QTcF Interval, Aggregate mean change from Baseline to Last Observed ([2]; Safety population, Overall): -2.24 ms | RR Interval, Aggregate mean change from Baseline to Last Observed ([2]; Safety population, Overall): -76.04 ms | ECG Median Heart Rate mean change from Baseline to Last Observed [2, 6]: 8 beats/min | PR Interval, Aggregate mean change from Baseline to Last Observed [2, 6]: 2.72 ms | QRS Duration, Aggregate mean change from Baseline to Last Observed [2, 6]: -0.79 ms | QT Interval, Aggregate mean change from Baseline to Last Observed [2, 6]: -15.85 ms | QTcB Interval, Aggregate mean change from Baseline to Last Observed [2, 6]: 5.58 ms | QTcF Interval, Aggregate mean change from Baseline to Last Observed [2, 6]: -1.98 ms | RR Interval, Aggregate mean change from Baseline to Last Observed [2, 6]: -93.14 ms | ECG Median Heart Rate mean change from Baseline to Last Observed [2, 7]: 5.23 beats/min | PR Interval, Aggregate mean change from Baseline to Last Observed [2, 7]: -4.2 ms | QRS Duration, Aggregate mean change from Baseline to Last Observed [2, 7]: -0.77 ms | QT Interval, Aggregate mean change from Baseline to Last Observed [2, 7]: -11.04 ms | QTcB Interval, Aggregate mean change from Baseline to Last Observed [2, 7]: 2.28 ms | QTcF Interval, Aggregate mean change from Baseline to Last Observed [2, 7]: -2.54 ms | RR Interval, Aggregate mean change from Baseline to Last Observed [2, 7]: -56.67 ms | ECG Median Heart Rate mean change from Baseline to Last Observed ([2]; mITT, Overall): 6.7 beats/min | PR Interval, Aggregate mean change from Baseline to Last Observed ([2]; mITT, Overall): -0.4 ms | QRS Duration, Aggregate mean change from Baseline to Last Observed ([2]; mITT, Overall): -0.78 ms | QT Interval, Aggregate mean change from Baseline to Last Observed ([2]; mITT, Overall): -13.6 ms | QTcB Interval, Aggregate mean change from Baseline to Last Observed ([2]; mITT, Overall): 4.03 ms | QTcF Interval, Aggregate mean change from Baseline to Last Observed ([2]; mITT, Overall): -2.24 ms | RR Interval, Aggregate mean change from Baseline to Last Observed ([2]; mITT, Overall): -76.04 ms | BDI-II Total Score mean change from Baseline to Last Observed [3, 6]: −3.06 | Cushing QOL Score mean change from Baseline to Last Observed [3, 6]: 6.25 | Part A - Total Time to Complete T mean change from Baseline to Last Observed [3, 6]: −3.65 | Part B - Total Time to Complete T mean change from Baseline to Last Observed [3, 6]: −15.94 | BDI-II Total Score mean change from Baseline to Last Observed [3, 7]: −3.94 | Cushing QOL Score mean change from Baseline to Last Observed [3, 7]: 8.07 | Part A - Total Time to Complete T mean change from Baseline to Last Observed [3, 7]: −4.67 | Part B - Total Time to Complete T mean change from Baseline to Last Observed [3, 7]: −34.6 | BDI-II Total Score mean change from Baseline to Last Observed ([3]; mITT, Overall): −3.48 | Cushing QOL Score mean change from Baseline to Last Observed ([3]; mITT, Overall): 7.13 | Part A - Total Time to Complete T mean change from Baseline to Last Observed ([3]; mITT, Overall): −4.13 | Part B - Total Time to Complete T mean change from Baseline to Last Observed ([3]; mITT, Overall): −24.69 | BDI-II Total Score mean change from Baseline to Last Observed [3, 8]: −4.47 | Cushing QOL Score mean change from Baseline to Last Observed [3, 8]: 6.25 | Part A - Total Time to Complete T mean change from Baseline to Last Observed [3, 8]: −3.65 | Part B - Total Time to Complete T mean change from Baseline to Last Observed [3, 8]: −15.94 | BDI-II Total Score mean change from Baseline to Last Observed [3, 9]: −3.87 | Cushing QOL Score mean change from Baseline to Last Observed [3, 9]: 7.64 | Part A - Total Time to Complete T mean change from Baseline to Last Observed [3, 9]: −4.67 | Part B - Total Time to Complete T mean change from Baseline to Last Observed [3, 9]: −34.6 | BDI-II Total Score mean change from Baseline to Last Observed ([3]; mPP, Overall): −4.19 | Cushing QOL Score mean change from Baseline to Last Observed ([3]; mPP, Overall): 6.9 | Part A - Total Time to Complete T mean change from Baseline to Last Observed ([3]; mPP, Overall): −4.13 | Part B - Total Time to Complete T mean change from Baseline to Last Observed ([3]; mPP, Overall): −24.69
